Assays:
Test in all cases: KINOMEscan competition binding
Conditions in all cases: compound 10.0 µM
[1] = biological target: HIPK1 (human) (UniProt Q86Z02)
[2] = biological target: BMPR1A (human) (UniProt P36894)
[3] = biological target: CDC42BPA (human) (UniProt Q5VT25)
[4] = biological target: ACVR1B (human) (UniProt P36896)
[5] = biological target: CSK (human) (UniProt P41240)
[6] = biological target: RET (human) (UniProt P07949)
[7] = biological target: MARK1 (human) (UniProt Q9P0L2)
[8] = biological target: PRKCE (human) (UniProt Q02156)
[9] = biological target: MAP3K1 (human) (UniProt Q13233)
[10] = biological target: CLK1 (human) (UniProt P49759)
[11] = biological target: GRK4 (human) (UniProt P32298)
[12] = biological target: FGFR1 (human) (UniProt P11362)
[13] = biological target: STK36 (human) (UniProt Q9NRP7)
[14] = biological target: PDGFRA (human) (UniProt P16234)
[15] = biological target: TNNI3K (human) (UniProt Q59H18)
[16] = biological target: NLK (human) (UniProt Q9UBE8)
[17] = biological target: PRKG2 (human) (UniProt Q13237)
[18] = biological target: MAP3K4 (human) (UniProt Q9Y6R4)
[19] = biological target: PIM3 (human) (UniProt Q86V86)
[20] = biological target: PRKAA1 (human) (UniProt Q13131)
[21] = biological target: SIK1 (human) (UniProt P57059)
[22] = biological target: SRPK3 (human) (UniProt Q9UPE1)
Sequence of SRPK3 (human) (Q9UPE1 whole entry, looked up): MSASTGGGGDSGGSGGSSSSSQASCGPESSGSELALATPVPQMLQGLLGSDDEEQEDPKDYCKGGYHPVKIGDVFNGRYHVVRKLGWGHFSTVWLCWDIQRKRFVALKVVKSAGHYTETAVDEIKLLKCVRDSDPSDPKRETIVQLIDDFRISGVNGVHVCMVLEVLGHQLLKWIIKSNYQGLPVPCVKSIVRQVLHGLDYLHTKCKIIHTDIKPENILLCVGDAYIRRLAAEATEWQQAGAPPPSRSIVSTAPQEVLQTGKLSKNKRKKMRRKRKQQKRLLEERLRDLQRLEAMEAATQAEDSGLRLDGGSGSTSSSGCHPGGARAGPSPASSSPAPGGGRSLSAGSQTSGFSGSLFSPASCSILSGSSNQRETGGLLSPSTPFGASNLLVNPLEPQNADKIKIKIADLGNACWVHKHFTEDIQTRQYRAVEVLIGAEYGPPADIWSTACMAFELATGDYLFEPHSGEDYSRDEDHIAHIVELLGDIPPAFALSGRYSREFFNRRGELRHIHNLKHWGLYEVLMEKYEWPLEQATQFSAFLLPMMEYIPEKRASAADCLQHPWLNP

[23] = biological target: MAP3K5 (human) (UniProt Q99683)
[24] = biological target: MAPKAPK2 (human) (UniProt P49137)
[25] = biological target: IKBKB (human) (UniProt O14920)
[26] = biological target: MAPK4 (human) (UniProt P31152)
[27] = biological target: MAP3K7 (human) (UniProt O43318)
[28] = biological target: TAOK3 (human) (UniProt Q9H2K8)
[29] = biological target: FLT3 (human) (UniProt P36888)
[30] = biological target: ROCK1 (human) (UniProt Q13464)
[31] = biological target: PIM2 (human) (UniProt Q9P1W9)
[32] = biological target: PRKAA2 (human) (UniProt P54646)
[33] = biological target: TIE1 (human) (UniProt P35590)
[34] = biological target: MAPK10 (human) (UniProt P53779)
[35] = biological target: TYK2 JH2 pseudokinase (human) (UniProt P29597)
[36] = biological target: CDK15 (human) (UniProt Q96Q40)
[37] = biological target: STK25 (human) (UniProt O00506)
[38] = biological target: CDK3 (human) (UniProt Q00526)
[39] = biological target: STK17A (human) (UniProt Q9UEE5)

Sequence of HIPK1 (human) (Q86Z02 whole entry, looked up): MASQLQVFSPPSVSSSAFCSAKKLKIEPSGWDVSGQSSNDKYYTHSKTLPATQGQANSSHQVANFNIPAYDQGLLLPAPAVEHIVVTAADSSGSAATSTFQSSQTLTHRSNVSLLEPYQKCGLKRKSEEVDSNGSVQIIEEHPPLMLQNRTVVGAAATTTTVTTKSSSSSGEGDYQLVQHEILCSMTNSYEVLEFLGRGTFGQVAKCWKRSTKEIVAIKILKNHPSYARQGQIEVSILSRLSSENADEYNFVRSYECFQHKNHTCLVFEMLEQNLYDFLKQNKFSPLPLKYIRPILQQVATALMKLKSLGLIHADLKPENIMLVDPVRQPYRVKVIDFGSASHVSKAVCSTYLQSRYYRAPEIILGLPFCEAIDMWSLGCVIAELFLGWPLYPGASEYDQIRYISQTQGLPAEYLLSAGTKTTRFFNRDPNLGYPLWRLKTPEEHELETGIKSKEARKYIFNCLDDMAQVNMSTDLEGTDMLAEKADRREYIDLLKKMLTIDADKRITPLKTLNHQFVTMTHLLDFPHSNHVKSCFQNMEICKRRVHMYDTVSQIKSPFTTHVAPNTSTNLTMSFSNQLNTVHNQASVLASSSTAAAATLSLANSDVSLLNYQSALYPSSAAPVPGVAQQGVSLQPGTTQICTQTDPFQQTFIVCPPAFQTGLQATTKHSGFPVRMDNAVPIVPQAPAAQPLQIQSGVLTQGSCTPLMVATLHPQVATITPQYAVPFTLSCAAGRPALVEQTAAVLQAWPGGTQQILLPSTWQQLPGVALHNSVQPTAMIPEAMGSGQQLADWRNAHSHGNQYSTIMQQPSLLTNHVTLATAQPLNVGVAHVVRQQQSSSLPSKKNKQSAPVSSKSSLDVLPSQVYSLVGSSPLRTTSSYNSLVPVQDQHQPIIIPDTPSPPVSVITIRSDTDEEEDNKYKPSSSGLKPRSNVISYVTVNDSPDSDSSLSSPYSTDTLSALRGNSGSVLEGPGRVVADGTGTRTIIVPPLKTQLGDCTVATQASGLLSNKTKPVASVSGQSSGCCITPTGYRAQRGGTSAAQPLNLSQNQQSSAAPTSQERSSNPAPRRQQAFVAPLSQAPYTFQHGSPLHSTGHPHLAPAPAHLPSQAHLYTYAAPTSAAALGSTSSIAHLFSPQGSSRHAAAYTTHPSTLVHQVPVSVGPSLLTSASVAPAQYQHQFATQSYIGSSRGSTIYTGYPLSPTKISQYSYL
Sequence of CDC42BPA (human) (Q5VT25 whole entry, looked up): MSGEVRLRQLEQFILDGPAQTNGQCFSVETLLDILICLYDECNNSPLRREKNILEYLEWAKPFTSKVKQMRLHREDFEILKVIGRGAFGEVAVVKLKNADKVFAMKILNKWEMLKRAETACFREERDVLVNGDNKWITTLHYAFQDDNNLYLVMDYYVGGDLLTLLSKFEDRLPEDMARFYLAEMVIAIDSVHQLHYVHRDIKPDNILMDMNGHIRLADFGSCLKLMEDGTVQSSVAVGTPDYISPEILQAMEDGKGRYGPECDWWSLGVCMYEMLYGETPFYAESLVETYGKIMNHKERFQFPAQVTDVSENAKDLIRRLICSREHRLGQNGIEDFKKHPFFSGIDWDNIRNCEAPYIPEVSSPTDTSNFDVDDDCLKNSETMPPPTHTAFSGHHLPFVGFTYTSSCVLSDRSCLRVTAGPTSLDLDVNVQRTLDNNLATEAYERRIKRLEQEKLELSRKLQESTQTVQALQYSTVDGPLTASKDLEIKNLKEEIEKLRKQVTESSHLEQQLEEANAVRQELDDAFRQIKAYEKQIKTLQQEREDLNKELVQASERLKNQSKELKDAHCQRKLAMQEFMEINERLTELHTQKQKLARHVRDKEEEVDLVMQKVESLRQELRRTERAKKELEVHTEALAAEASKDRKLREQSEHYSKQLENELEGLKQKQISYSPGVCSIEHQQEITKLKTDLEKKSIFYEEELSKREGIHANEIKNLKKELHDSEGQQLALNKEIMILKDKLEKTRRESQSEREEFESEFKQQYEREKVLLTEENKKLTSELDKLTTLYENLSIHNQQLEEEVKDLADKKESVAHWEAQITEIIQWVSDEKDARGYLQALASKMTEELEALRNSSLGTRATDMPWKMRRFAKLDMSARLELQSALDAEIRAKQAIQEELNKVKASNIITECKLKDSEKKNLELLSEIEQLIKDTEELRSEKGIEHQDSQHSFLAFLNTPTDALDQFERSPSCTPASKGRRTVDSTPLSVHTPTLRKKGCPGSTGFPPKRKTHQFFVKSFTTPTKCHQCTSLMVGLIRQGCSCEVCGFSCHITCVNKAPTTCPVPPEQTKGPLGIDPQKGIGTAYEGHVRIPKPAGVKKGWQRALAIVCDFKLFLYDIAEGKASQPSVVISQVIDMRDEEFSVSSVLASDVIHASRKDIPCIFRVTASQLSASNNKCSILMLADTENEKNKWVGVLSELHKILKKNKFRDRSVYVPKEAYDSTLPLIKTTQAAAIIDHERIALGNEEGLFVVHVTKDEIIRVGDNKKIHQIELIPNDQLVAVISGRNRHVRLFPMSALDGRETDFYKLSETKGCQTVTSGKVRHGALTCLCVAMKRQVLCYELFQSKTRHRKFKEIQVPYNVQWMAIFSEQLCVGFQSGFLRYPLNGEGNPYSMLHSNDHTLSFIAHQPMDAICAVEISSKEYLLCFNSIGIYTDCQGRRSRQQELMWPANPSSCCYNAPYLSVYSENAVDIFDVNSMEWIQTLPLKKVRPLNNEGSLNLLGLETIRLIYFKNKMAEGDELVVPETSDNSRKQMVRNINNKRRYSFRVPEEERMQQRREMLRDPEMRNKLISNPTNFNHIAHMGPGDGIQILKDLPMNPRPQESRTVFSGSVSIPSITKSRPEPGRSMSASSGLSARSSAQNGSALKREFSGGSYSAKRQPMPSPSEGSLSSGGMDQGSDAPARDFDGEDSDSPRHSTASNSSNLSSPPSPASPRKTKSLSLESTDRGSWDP
Sequence of RET (human) (P07949 whole entry, looked up): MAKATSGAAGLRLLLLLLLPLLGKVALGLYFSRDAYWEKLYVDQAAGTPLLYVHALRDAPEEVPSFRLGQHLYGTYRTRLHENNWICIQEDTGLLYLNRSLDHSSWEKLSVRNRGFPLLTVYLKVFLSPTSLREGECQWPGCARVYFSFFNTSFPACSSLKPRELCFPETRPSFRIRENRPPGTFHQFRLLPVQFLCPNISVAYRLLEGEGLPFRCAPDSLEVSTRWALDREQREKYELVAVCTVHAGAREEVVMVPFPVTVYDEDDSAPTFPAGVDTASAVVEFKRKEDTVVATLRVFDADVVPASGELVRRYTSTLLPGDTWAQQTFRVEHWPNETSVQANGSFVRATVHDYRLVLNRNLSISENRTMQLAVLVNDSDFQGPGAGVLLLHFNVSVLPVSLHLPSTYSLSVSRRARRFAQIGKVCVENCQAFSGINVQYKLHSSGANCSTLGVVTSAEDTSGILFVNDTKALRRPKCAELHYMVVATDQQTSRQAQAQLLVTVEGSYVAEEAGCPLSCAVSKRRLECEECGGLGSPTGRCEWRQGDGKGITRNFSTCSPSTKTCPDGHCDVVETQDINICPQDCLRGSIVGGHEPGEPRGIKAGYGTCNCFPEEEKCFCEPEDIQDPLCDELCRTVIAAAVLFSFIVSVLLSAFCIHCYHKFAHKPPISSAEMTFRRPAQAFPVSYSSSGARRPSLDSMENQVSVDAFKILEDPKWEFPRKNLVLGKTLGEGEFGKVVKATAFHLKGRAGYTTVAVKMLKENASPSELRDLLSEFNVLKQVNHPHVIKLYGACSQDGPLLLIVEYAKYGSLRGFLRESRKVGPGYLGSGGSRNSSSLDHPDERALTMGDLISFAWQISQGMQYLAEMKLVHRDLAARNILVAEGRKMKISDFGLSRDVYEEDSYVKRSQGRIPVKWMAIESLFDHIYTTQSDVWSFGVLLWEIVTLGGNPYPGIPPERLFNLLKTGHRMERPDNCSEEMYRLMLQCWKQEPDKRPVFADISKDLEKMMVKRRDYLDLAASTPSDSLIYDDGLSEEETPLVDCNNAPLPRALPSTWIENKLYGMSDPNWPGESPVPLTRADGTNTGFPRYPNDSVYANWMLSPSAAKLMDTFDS
Sequence of CSK (human) (P41240 whole entry, looked up): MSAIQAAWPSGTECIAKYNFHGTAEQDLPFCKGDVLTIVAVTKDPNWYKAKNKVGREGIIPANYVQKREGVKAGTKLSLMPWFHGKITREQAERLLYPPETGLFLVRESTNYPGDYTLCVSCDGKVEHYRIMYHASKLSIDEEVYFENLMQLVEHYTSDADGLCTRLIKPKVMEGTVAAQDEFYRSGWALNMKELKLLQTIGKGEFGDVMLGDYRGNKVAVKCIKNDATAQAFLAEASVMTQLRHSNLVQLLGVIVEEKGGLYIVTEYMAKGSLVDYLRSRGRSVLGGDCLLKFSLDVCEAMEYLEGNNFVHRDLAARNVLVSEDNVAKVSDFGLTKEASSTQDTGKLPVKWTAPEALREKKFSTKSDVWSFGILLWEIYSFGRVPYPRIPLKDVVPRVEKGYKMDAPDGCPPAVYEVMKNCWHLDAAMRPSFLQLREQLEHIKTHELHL

SMILES	kinase still bound, per cent of control [1]	kinase still bound, per cent of control [2]	kinase still bound, per cent of control [3]	kinase still bound, per cent of control [4]	kinase still bound, per cent of control [5]	kinase still bound, per cent of control [6]	kinase still bound, per cent of control [7]	kinase still bound, per cent of control [8]	kinase still bound, per cent of control [12]	kinase still bound, per cent of control [13]	kinase still bound, per cent of control [14]	kinase still bound, per cent of control [15]	kinase still bound, per cent of control [16]	kinase still bound, per cent of control [17]	kinase still bound, per cent of control [18]	kinase still bound, per cent of control [19]	kinase still bound, per cent of control [20]	kinase still bound, per cent of control [21]	kinase still bound, per cent of control [22]	kinase still bound, per cent of control [23]	other results
COc1cc(N2CCN(C)CC2)ccc1Nc1ncc2c(n1)N(C)c1ccccc1C(=O)N2C	100%	100%	100%	100%	100%	100%	100%	100%	100%	100%	100%	100%	100%	100%	100%	100%	100%	100%	100%	100%	kinase still bound, per cent of control [9]: 100%; kinase still bound, per cent of control [10]: 100%; kinase still bound, per cent of control [11]: 100%; kinase still bound, per cent of control [24]: 100%; kinase still bound, per cent of control [25]: 100%; kinase still bound, per cent of control [26]: 100%; kinase still bound, per cent of control [27]: 100%; kinase still bound, per cent of control [28]: 2%; kinase still bound, per cent of control [29]: 100%; kinase still bound, per cent of control [30]: 100%; kinase still bound, per cent of control [31]: 100%; kinase still bound, per cent of control [32]: 100%; kinase still bound, per cent of control [33]: 100%; kinase still bound, per cent of control [34]: 100%; kinase still bound, per cent of control [35]: 100%; kinase still bound, per cent of control [36]: 100%; kinase still bound, per cent of control [37]: 100%; kinase still bound, per cent of control [38]: 100%; kinase still bound, per cent of control [39]: 100%
C=CC(=O)Nc1ccc(CN(C(=O)Nc2c(Cl)c(OC)cc(OC)c2Cl)c2cc(Nc3ccc(N4CCN(C)CC4)cc3)ncn2)cc1	100%	100%	100%	100%	100%	0.6%	100%	100%	2.2%	100%	2.2%	100%	100%	100%	10%	100%	100%	31%	100%	100%	kinase still bound, per cent of control [10]: 100%; kinase still bound, per cent of control [24]: 100%; kinase still bound, per cent of control [25]: 100%; kinase still bound, per cent of control [26]: 100%; kinase still bound, per cent of control [27]: 100%; kinase still bound, per cent of control [28]: 0.9%; kinase still bound, per cent of control [29]: 6%; kinase still bound, per cent of control [31]: 100%; kinase still bound, per cent of control [32]: 100%; kinase still bound, per cent of control [33]: 0%; kinase still bound, per cent of control [34]: 100%; kinase still bound, per cent of control [35]: 100%; kinase still bound, per cent of control [36]: 100%; kinase still bound, per cent of control [37]: 100%; kinase still bound, per cent of control [38]: 100%; kinase still bound, per cent of control [39]: 100%
CS(=O)(=O)N1CCN(Cc2cc3nc(-c4cccc5[nH]ncc45)nc(N4CCOCC4)c3s2)CC1	100%	100%	100%	100%	100%	100%	100%	100%	100%	100%	0%	100%	100%	100%	100%	100%	100%	100%	100%	100%	kinase still bound, per cent of control [9]: 100%; kinase still bound, per cent of control [11]: 100%; kinase still bound, per cent of control [24]: 100%; kinase still bound, per cent of control [25]: 100%; kinase still bound, per cent of control [26]: 100%; kinase still bound, per cent of control [27]: 100%; kinase still bound, per cent of control [28]: 100%; kinase still bound, per cent of control [29]: 100%; kinase still bound, per cent of control [30]: 100%; kinase still bound, per cent of control [31]: 100%; kinase still bound, per cent of control [32]: 100%; kinase still bound, per cent of control [34]: 100%; kinase still bound, per cent of control [35]: 100%; kinase still bound, per cent of control [36]: 100%; kinase still bound, per cent of control [37]: 100%; kinase still bound, per cent of control [38]: 100%; kinase still bound, per cent of control [39]: 100%

— the kinase profiling compilation of Christmann-Franck et al. (2016)
